In test [1] the target is T1, Urotensin-2 receptor (Homo sapiens, UniProt Q9UKP6).
T1 sequence (Q9UKP6 whole entry): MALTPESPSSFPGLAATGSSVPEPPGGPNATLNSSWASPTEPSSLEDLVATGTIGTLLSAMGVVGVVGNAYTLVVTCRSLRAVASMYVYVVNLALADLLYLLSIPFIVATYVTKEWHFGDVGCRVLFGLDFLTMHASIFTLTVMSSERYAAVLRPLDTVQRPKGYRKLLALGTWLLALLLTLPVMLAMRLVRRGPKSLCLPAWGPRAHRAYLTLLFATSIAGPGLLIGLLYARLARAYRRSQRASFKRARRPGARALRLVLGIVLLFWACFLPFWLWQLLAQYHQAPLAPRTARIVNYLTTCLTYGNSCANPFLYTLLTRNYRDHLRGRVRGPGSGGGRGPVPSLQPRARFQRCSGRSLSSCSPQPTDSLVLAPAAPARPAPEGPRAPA
Kind of test: Ability to displace radioligand [125I]Tyr-hU-II from human recombinant Urotensin 2 receptor in CHO-K1 cells. The class given is cell-based.

In test [2] the target is T2, Urotensin-2 receptor (Homo sapiens) (UniProt Q9UKP6).
T2 sequence (whole entry): T1 sequence (Q9UKP6 whole entry)
The note with it: CHO-K1.

Bridge positions count the residues as written; N and C are the ends. Square brackets hold non-standard residues; d marks the D form. Peptide text beside a SMILES is read from it. dPen = CC(C)(S)[C@@H](N)C(=O)O; Pen = CC(C)(S)[C@H](N)C(=O)O

As to `CC(C)[C@H](NC(=O)[C@H]1NC(=O)[C@H](Cc2ccc(O)cc2)NC(=O)[C@H](CCCCN)NC(=O)[C@H](Cc2c[nH]c3ccccc23)NC(=O)[C@H](Cc2ccccc2)NC(=O)[C@@H](NC(=O)[C@@H](N)CC(=O)O)CSSC1(C)C)C(=O)O`, the “Log Ki” value in test [1] is listed as -7.9.
On to `CC(C)[C@H](NC(=O)[C@@H]1CSSC[C@@H](NC(=O)[C@H](CC(=O)O)NC(=O)[C@H]2CCCN2C(=O)[C@@H](NC(=O)[C@@H](N)CCC(=O)O)[C@@H](C)O)C(=O)N[C@H](Cc2ccccc2)C(=O)N[C@@H](Cc2c[nH]c3ccccc23)C(=O)N[C@H](CCCCN)C(=O)N[C@@H](Cc2ccc(O)cc2)C(=O)N1)C(=O)O`, for which the pD2 in test [2] came to 8.3.
Consider `CC(C)[C@H](NC(=O)[C@@H]1NC(=O)[C@H](Cc2ccc(O)cc2)NC(=O)[C@H](CCCCN)NC(=O)[C@H](Cc2c[nH]c3ccccc23)NC(=O)[C@H](Cc2ccccc2)NC(=O)[C@H](NC(=O)[C@@H](N)CC(=O)O)CSSC1(C)C)C(=O)O`, for which, in test [2], the pD2 turned out to be 6.7.
Regarding `CC(C)[C@H](NC(=O)[C@H]1NC(=O)[C@H](Cc2ccc(O)cc2)NC(=O)[C@H](CCCCN)NC(=O)[C@H](Cc2c[nH]c3ccccc23)NC(=O)[C@H](Cc2ccccc2)NC(=O)[C@@H](NC(=O)[C@@H](N)CC(=O)O)C(C)(C)SSC1(C)C)C(=O)O` (H-D[Pen]FWKY[Pen]V-OH; disulfide 2-7), the “Log Ki” value in test [1] is reported as -8.9.
The molecule `CC(C)[C@H](NC(=O)[C@@H]1CSSC[C@@H](NC(=O)[C@@H](N)CC(=O)O)C(=O)N[C@@H](Cc2ccccc2)C(=O)N[C@@H](Cc2c[nH]c3ccccc23)C(=O)N[C@@H](CCCCN)C(=O)N[C@@H](Cc2ccc(O)cc2)C(=O)N1)C(=O)O` (H-D[dC]FWKYCV-OH; disulfide 2-7) gave a pD2 in test [2] of 8.6.
The molecule `CC(C)[C@H](NC(=O)[C@@H]1CSSC(C)(C)[C@@H](NC(=O)[C@@H](N)CC(=O)O)C(=O)N[C@@H](Cc2ccccc2)C(=O)N[C@@H](Cc2c[nH]c3ccccc23)C(=O)N[C@@H](CCCCN)C(=O)N[C@@H](Cc2ccc(O)cc2)C(=O)N1)C(=O)O` (H-D[dPen]FWKYCV-OH; disulfide 2-7) displayed a pD2 in test [2] of 9.6.
Regarding `CC(C)[C@H](NC(=O)[C@@H]1NC(=O)[C@H](Cc2ccc(O)cc2)NC(=O)[C@H](CCCCN)NC(=O)[C@H](Cc2c[nH]c3ccccc23)NC(=O)[C@H](Cc2ccccc2)NC(=O)[C@H](NC(=O)[C@@H](N)CC(=O)O)C(C)(C)SSC1(C)C)C(=O)O` (H-D[dPen]FWKY[dPen]V-OH; disulfide 2-7), the pD2 in test [2] was 8.2.

These data come from ChEMBL document CHEMBL1135818, “A new, potent urotensin II receptor peptide agonist containing a Pen residue at the disulfide bridge” (J Med Chem, 2002).
